Results: the NIST ThermoML archive (doi:10.1021/acs.jced.8b00460)
± gives the expanded uncertainty stated by the source.

Details: 511.35 K; Liquid; Ebulliometric method (Recirculating still)

vapor or sublimation pressure: 1.015 ± 0.1 kPa
Structure (SMILES): O=C(OCCOCCOC(=O)c1ccccc1)c1ccccc1 [diethylene glycol dibenzoate]
